Assay results taken from patent publication US9725490B2, “ERAP1-derived peptide and use thereof” (TOKUSHIMA UNIVERSITY, priority 2011, dated 2017).

Legend:
KPL-3C tumor = experiment: In vivo inhibition of tumor proliferation, concomitant use with tamoxifen, KPL-3C transplant; design: species or system BALB/c nude mouse; details: intraperitoneal every day, day 14
Source text: FIG. 18 is a diagram illustrating the influence of concomitant use of the ERAP1-peptide and tamoxifen on tumor proliferation in a human breast cancer-transplanted mouse. KPL-3 cells were subcutaneously transplanted into the breast fat body of a BALB/c nude mouse. The treatment test individuals/group) was initiated (day 0) when the volume of the tumor reached about 50-80 mm^3 in the absence E2.
KPL-3 cells were subcutaneously transplanted into the breast fat body of a BALB/c nude mouse. When the volume of the tumor reached about 50-80 mm^3 in the absence of E2, the treatment test (5 individuals/group) was initiated (day 0). KPL-3C tumor heterotransplant-carrying mouse was administered with the ERAP1-peptide alone (3.5, 7 and 14 mg/kg), the scramble peptide alone (14 mg/kg), tamoxifen alone (4 mg/kg) or a combination of the ERAP1-peptide (14 mg/kg) and tamoxifen (4 mg/kg) every day by intraperitoneal injection.

[1] = system: transcriptional activity of ERα (ERE); experiment: ERE-luciferase reporter assay in MCF-7 cells; type: cell-based, human; details: 10 nM E2 24 hours
Protocol: FIG. 3-2 is a diagram illustrating promotion effect of PHB2 nuclear translocation and suppression effect of the transcriptional activation of ER by ERAP1-peptide treatment. (C) illustrates representative images of stained immune cells, showing the localization of the ERAP1-peptide (HA-tagged ERAP1-peptide) and PHB2. MCF-7 cells were treated with 10 μM HA-tagged ERAP1-peptide for 24 hours in the presence or in the absence of 10 nM E2. After the immobilization, the cells were subjected to immunonfluorescent staining using an anti-HA antibody, an anti-PHB2 antibody and DAPI (for discriminating the nucleus). The arrow indicates the nuclear-translocated ERAP1-peptide. […] Then, immediately, the cells were stimulated with 10 nM E2 for 24 hours. TAM indicates the tamoxifen treatment.
(§1) FIG. 3-3 is as diagram illustrating the results of the luciferase assay by which the inhibition effect of the ERAP1-peptide was evaluated. MCF-7 cells temporarily transfected with an ERE-luciferase reporter vector (F) or an AP-1-luciferase reporter vector (F) were treated with the ERAP1-peptide, the scramble peptide or the mutant peptide in the concentrations shown in the […]. Then, immediately, the cells were stimulated with 10 nM E2 for 24 hours. TAM indicates the tamoxifen treatment.
(§2) FIG. 4-3 is a diagram illustrating that the ERAP1-peptide promotes nuclear translocation of PHB2. (C) and (D) are figures that show the results of the luciferase assay by which the inhibition effect of the ERAP1-peptide on the ERα transcriptional activity was evaluated. MCF-7 cells temporarily transfected with an ERE-luciferase reporter vector (C) or an AP-1-luciferase reporter vector (D) were treated with the ERAP1-peptide in the concentrations shown in the figure or 10 nM tamoxifen. Then, immediately, the cells were stimulated with 10 nM E2 thr 24 hours.
(§3) For ERE reporter assay, MCF-7 cells were transfected with ERE reporter (SABiosciences, Frederick, Md., USA) in accordance with the instruction of the manufacturer. For AP-1 reporter assay, MCF-7 cells were transfected with AP-1 reporter (mouse IL-11 promoter comprising two tandem AP-1 sites subcloned into PGL2-basic vector), c-fos, c-Jun and pRL-TK as an internal standard. After 16 hours from the transfection, the culture medium was exchanged with an assay culture medium (Opti-MEM, 10% FBS, 0.1 mM NEAA, 0.1 mM Sodium pyruvate and 10 μg/ml insulin) After 24 hours from the transfection, the cells were treated with E2 and/or the ERAP1-peptide or 24 hours. The cells were harvested, and the activities of luciferase and Renilla-luciferase were evaluated using Promega dual luciferase reporter assay (Tokyo, Japan). In consideration of the transfection efficiency, all of the data were standardized by the activity of Renilla-luciferase.

[2] = system: transcriptional activity of ERα (AP-1); experiment: AP-1-luciferase reporter assay in MCF-7 cells; type: cell-based, human; details: 10 nM E2 24 hours
Protocol: as §1, §2, §3

[3] = target: T1, binding of inherent ERAP1 and inherent PHB2/REA (Homo sapiens, UniProt Q99623); experiment: Inhibition of ERAP1-PHB2/REA binding in cells, immunoprecipitation-Western blotting; type: cell-based; details: MCF-7 and KPL-3C cells; 10 μM peptide; 10 nM E2 24 hours
T1 construct: endogenous in cells; host or cells: MCF-7 and KPL-3C breast cancer cells
T1 sequence (Q99623 2-299 limits assumed): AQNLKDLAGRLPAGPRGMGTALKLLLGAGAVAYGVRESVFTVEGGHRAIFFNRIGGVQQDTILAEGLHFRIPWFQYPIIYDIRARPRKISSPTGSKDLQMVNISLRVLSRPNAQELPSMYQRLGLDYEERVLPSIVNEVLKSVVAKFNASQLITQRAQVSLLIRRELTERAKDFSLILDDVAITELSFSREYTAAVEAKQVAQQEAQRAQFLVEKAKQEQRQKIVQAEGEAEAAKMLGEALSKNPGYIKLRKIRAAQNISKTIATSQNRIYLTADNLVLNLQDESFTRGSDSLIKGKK

Row | Compound | antitumor effect (tumor volume) (KPL-3C tumor) | transcriptional activity of ERα in ERE [1] | transcriptional activity of ERα in AP-1 [2] | inhibition of the binding of inherent ERAP1 and inherent PHB2/REA [3]
1 | CSCC[C@H](NC(=O)[C@H](CCC(N)=O)NC(=O)[C@H](CCCNC(=N)N)NC(=O)[C@H](CCCNC(=N)N)NC(=O)[C@H](CCCNC(=N)N)NC(=O)[C@H](CCCNC(=N)N)NC(=O)[C@H](CCCNC(=N)N)NC(=O)[C@H](CCCNC(=N)N)NC(=O)[C@H](CCCNC(=N)N)NC(=O)[C@H](CCCNC(=N)N)NC(=O)[C@H](CCCNC(=N)N)NC(=O)[C@H](CCCNC(=N)N)NC(=O)[C@@H](N)CCCNC(=N)N)C(=O)N[C@@H](CC(C)C)C(=O)N[C@@H](CO)C(=O)N[C@@H](CC(=O)O)C(=O)N[C@@H](CC(C)C)C(=O)N[C@H](C(=O)N[C@@H](CC(C)C)C(=O)N[C@@H](CCC(N)=O)C(=O)N[C@@H](CC(C)C)C(=O)N[C@@H](CCCNC(=N)N)C(=O)N[C@@H](CCC(N)=O)C(=O)N[C@@H](CCCNC(=N)N)C(=O)O)[C@@H](C)O [ERAP1-peptide] | dose-dependent (3.5, 7 and 14 mg/kg) antitumor effect | suppressed the transcriptional activity of ERα | suppressed the transcriptional activity of ERα | remarkably inhibited
2 | DRQLQLSTLQRML (SEQ ID NO: 28) (ERAP1-scramble peptide) [reference compound] | the effect was not recognized | no change was recognized | no change was recognized | not recognized in any of the cells
